System: CIRAR: Canada thistle (Cirsium arvense)
Test: Post-emergent Test III, herbicidal activity in wheat and barley
Type: in vivo
Details: Cirsium arvense, post-emergence, 504 h; Table 8; 35 g ai/ha; post-emergent; 21 d; read-out: Visual Growth Reduction (%) 21 Days After Application CIRAR
In short: (§1)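 GR20, GR50, GR80 and GR90 come from probit analysis of visual injury scores (0 = none, 100 = complete kill) taken 21 d after treatment. Foliar application was by track sprayer delivering 187 L/ha at five rates, from high down to 1/16×, onto greenhouse plants at the 2–3 leaf stage, with solvent-blank controls.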

Compound	pest or weed control at 35 g/ha
Nc1c(Cl)c(C(=O)O)nc(-c2ccc(Br)c(F)c2)c1Cl [Compound 43, 4-Amino-6-(4-bromo-3-fluorophenyl)-3,5-dichloropicolinic acid]	85 to 94%
COC(=O)c1nc(-c2ccc(I)c(F)c2)c(C)c(N)c1Cl [Compound 79, Methyl 4-amino-3-chloro-6-(3-fluoro-4-iodophenyl)-5-methylpicolinate]	95 to 100%
Nc1cc(-c2ccc(I)cc2F)nc(C(=O)O)c1Cl [Compound 124]	60 to 74%

Same assay, conditions: Cirsium arvense, post-emergence, 504 h; Table 8; 70 g ai/ha; post-emergent; 21 d; read-out: Visual Growth Reduction (%) 21 Days After Application CIRAR

Compound	pest or weed control at 70 g/ha
Nc1c(Cl)c(C(=O)O)nc(-c2ccc(Br)c(F)c2)c1Cl [Compound 43, 4-Amino-6-(4-bromo-3-fluorophenyl)-3,5-dichloropicolinic acid]	85 to 94%
COC(=O)c1nc(-c2ccc(I)c(F)c2)c(C)c(N)c1Cl [Compound 79, Methyl 4-amino-3-chloro-6-(3-fluoro-4-iodophenyl)-5-methylpicolinate]	95 to 100%
Nc1cc(-c2ccc(I)cc2F)nc(C(=O)O)c1Cl [Compound 124]	75 to 84%

Same assay, conditions: Table 8; dose for 50 percent growth reduction, probit analysis; 21 d

Compound	GR50 CIRAR
Nc1c(Cl)c(C(=O)O)nc(-c2ccc(Br)c(F)c2)c1Cl [Compound 43, 4-Amino-6-(4-bromo-3-fluorophenyl)-3,5-dichloropicolinic acid]	0 g ai/ha
COC(=O)c1nc(-c2ccc(I)c(F)c2)c(C)c(N)c1Cl [Compound 79, Methyl 4-amino-3-chloro-6-(3-fluoro-4-iodophenyl)-5-methylpicolinate]	1 g ai/ha
Nc1cc(-c2ccc(I)cc2F)nc(C(=O)O)c1Cl [Compound 124]	24 g ai/ha

Same assay, conditions: Table 8; dose for 80 percent growth reduction, probit analysis; 21 d

Compound	GR80 CIRAR
Nc1c(Cl)c(C(=O)O)nc(-c2ccc(Br)c(F)c2)c1Cl [Compound 43, 4-Amino-6-(4-bromo-3-fluorophenyl)-3,5-dichloropicolinic acid]	13 g ai/ha
COC(=O)c1nc(-c2ccc(I)c(F)c2)c(C)c(N)c1Cl [Compound 79, Methyl 4-amino-3-chloro-6-(3-fluoro-4-iodophenyl)-5-methylpicolinate]	5 g ai/ha
Nc1cc(-c2ccc(I)cc2F)nc(C(=O)O)c1Cl [Compound 124]	91 g ai/ha

System: GALAP: cleavers (Galium aparine)
Test: as above
Type: in vivo
Details: Galium aparine, post-emergence, 504 h; Table 8; 35 g ai/ha; post-emergent; 21 d; read-out: Visual Growth Reduction (%) 21 Days After Application GALAP
In short: as §1

Compound	pest or weed control at 35 g/ha
Nc1c(Cl)c(C(=O)O)nc(-c2ccc(Br)c(F)c2)c1Cl [Compound 43, 4-Amino-6-(4-bromo-3-fluorophenyl)-3,5-dichloropicolinic acid]	95 to 100%
COC(=O)c1nc(-c2ccc(I)c(F)c2)c(C)c(N)c1Cl [Compound 79, Methyl 4-amino-3-chloro-6-(3-fluoro-4-iodophenyl)-5-methylpicolinate]	95 to 100%
Nc1cc(-c2ccc(I)cc2F)nc(C(=O)O)c1Cl [Compound 124]	85 to 94%

Same assay, conditions: Galium aparine, post-emergence, 504 h; Table 8; 70 g ai/ha; post-emergent; 21 d; read-out: Visual Growth Reduction (%) 21 Days After Application GALAP

Compound	pest or weed control at 70 g/ha
Nc1c(Cl)c(C(=O)O)nc(-c2ccc(Br)c(F)c2)c1Cl [Compound 43, 4-Amino-6-(4-bromo-3-fluorophenyl)-3,5-dichloropicolinic acid]	95 to 100%
COC(=O)c1nc(-c2ccc(I)c(F)c2)c(C)c(N)c1Cl [Compound 79, Methyl 4-amino-3-chloro-6-(3-fluoro-4-iodophenyl)-5-methylpicolinate]	95 to 100%
Nc1cc(-c2ccc(I)cc2F)nc(C(=O)O)c1Cl [Compound 124]	95 to 100%

Same assay, conditions: Table 8; dose for 50 percent growth reduction, probit analysis; 21 d

Compound	GR50 GALAP
Nc1c(Cl)c(C(=O)O)nc(-c2ccc(Br)c(F)c2)c1Cl [Compound 43, 4-Amino-6-(4-bromo-3-fluorophenyl)-3,5-dichloropicolinic acid]	2 g ai/ha
COC(=O)c1nc(-c2ccc(I)c(F)c2)c(C)c(N)c1Cl [Compound 79, Methyl 4-amino-3-chloro-6-(3-fluoro-4-iodophenyl)-5-methylpicolinate]	4 g ai/ha
Nc1cc(-c2ccc(I)cc2F)nc(C(=O)O)c1Cl [Compound 124]	6 g ai/ha

Same assay, conditions: Table 8; dose for 80 percent growth reduction, probit analysis; 21 d

Compound	GR80 GALAP
Nc1c(Cl)c(C(=O)O)nc(-c2ccc(Br)c(F)c2)c1Cl [Compound 43, 4-Amino-6-(4-bromo-3-fluorophenyl)-3,5-dichloropicolinic acid]	6 g ai/ha
COC(=O)c1nc(-c2ccc(I)c(F)c2)c(C)c(N)c1Cl [Compound 79, Methyl 4-amino-3-chloro-6-(3-fluoro-4-iodophenyl)-5-methylpicolinate]	6 g ai/ha
Nc1cc(-c2ccc(I)cc2F)nc(C(=O)O)c1Cl [Compound 124]	21 g ai/ha

System: SASKR: Russian thistle (Salsola iberica)
Test: as above
Type: in vivo
Details: Salsola tragus, post-emergence, 504 h; Table 8; 35 g ai/ha; post-emergent; 21 d; read-out: Visual Growth Reduction (%) 21 Days After Application SASKR
In short: as §1

Compound	pest or weed control at 35 g/ha
Nc1c(Cl)c(C(=O)O)nc(-c2ccc(Br)c(F)c2)c1Cl [Compound 43, 4-Amino-6-(4-bromo-3-fluorophenyl)-3,5-dichloropicolinic acid]	75 to 84%
COC(=O)c1nc(-c2ccc(I)c(F)c2)c(C)c(N)c1Cl [Compound 79, Methyl 4-amino-3-chloro-6-(3-fluoro-4-iodophenyl)-5-methylpicolinate]	75 to 84%
Nc1cc(-c2ccc(I)cc2F)nc(C(=O)O)c1Cl [Compound 124]	60 to 74%

Same assay, conditions: Salsola tragus, post-emergence, 504 h; Table 8; 70 g ai/ha; post-emergent; 21 d; read-out: Visual Growth Reduction (%) 21 Days After Application SASKR

Compound	pest or weed control at 70 g/ha
Nc1c(Cl)c(C(=O)O)nc(-c2ccc(Br)c(F)c2)c1Cl [Compound 43, 4-Amino-6-(4-bromo-3-fluorophenyl)-3,5-dichloropicolinic acid]	75 to 84%
COC(=O)c1nc(-c2ccc(I)c(F)c2)c(C)c(N)c1Cl [Compound 79, Methyl 4-amino-3-chloro-6-(3-fluoro-4-iodophenyl)-5-methylpicolinate]	85 to 94%
Nc1cc(-c2ccc(I)cc2F)nc(C(=O)O)c1Cl [Compound 124]	85 to 94%

Same assay, conditions: Table 8; dose for 50 percent growth reduction, probit analysis; 21 d

Compound	GR50 SASKR
Nc1c(Cl)c(C(=O)O)nc(-c2ccc(Br)c(F)c2)c1Cl [Compound 43, 4-Amino-6-(4-bromo-3-fluorophenyl)-3,5-dichloropicolinic acid]	3 g ai/ha
COC(=O)c1nc(-c2ccc(I)c(F)c2)c(C)c(N)c1Cl [Compound 79, Methyl 4-amino-3-chloro-6-(3-fluoro-4-iodophenyl)-5-methylpicolinate]	11 g ai/ha
Nc1cc(-c2ccc(I)cc2F)nc(C(=O)O)c1Cl [Compound 124]	12 g ai/ha

Same assay, conditions: Table 8; dose for 80 percent growth reduction, probit analysis; 21 d

Compound	GR80 SASKR
Nc1c(Cl)c(C(=O)O)nc(-c2ccc(Br)c(F)c2)c1Cl [Compound 43, 4-Amino-6-(4-bromo-3-fluorophenyl)-3,5-dichloropicolinic acid]	61 g ai/ha
COC(=O)c1nc(-c2ccc(I)c(F)c2)c(C)c(N)c1Cl [Compound 79, Methyl 4-amino-3-chloro-6-(3-fluoro-4-iodophenyl)-5-methylpicolinate]	43 g ai/ha
Nc1cc(-c2ccc(I)cc2F)nc(C(=O)O)c1Cl [Compound 124]	53 g ai/ha

System: VIOSS: wild pansy (Viola tricolor), field violet (Viola arvensis)
Test: as above
Type: in vivo
Details: Table 8; dose for 50 percent growth reduction, probit analysis; 21 d
In short: as §1

Compound	GR50 VIOSS
Nc1c(Cl)c(C(=O)O)nc(-c2ccc(Br)c(F)c2)c1Cl [Compound 43, 4-Amino-6-(4-bromo-3-fluorophenyl)-3,5-dichloropicolinic acid]	37 g ai/ha
COC(=O)c1nc(-c2ccc(I)c(F)c2)c(C)c(N)c1Cl [Compound 79, Methyl 4-amino-3-chloro-6-(3-fluoro-4-iodophenyl)-5-methylpicolinate]	>140 g ai/ha
Nc1cc(-c2ccc(I)cc2F)nc(C(=O)O)c1Cl [Compound 124]	24 g ai/ha

Same assay, conditions: Table 8; dose for 80 percent growth reduction, probit analysis; 21 d

Compound	GR80 VIOSS
Nc1c(Cl)c(C(=O)O)nc(-c2ccc(Br)c(F)c2)c1Cl [Compound 43, 4-Amino-6-(4-bromo-3-fluorophenyl)-3,5-dichloropicolinic acid]	>140 g ai/ha
COC(=O)c1nc(-c2ccc(I)c(F)c2)c(C)c(N)c1Cl [Compound 79, Methyl 4-amino-3-chloro-6-(3-fluoro-4-iodophenyl)-5-methylpicolinate]	>140 g ai/ha
Nc1cc(-c2ccc(I)cc2F)nc(C(=O)O)c1Cl [Compound 124]	49 g ai/ha

Same assay, conditions: Viola tricolor, post-emergence, 504 h; Table 8; 35 g ai/ha; post-emergent; 21 d; read-out: Visual Growth Reduction (%) 21 Days After Application VIOSS

Compound	pest or weed control at 35 g/ha
Nc1c(Cl)c(C(=O)O)nc(-c2ccc(Br)c(F)c2)c1Cl [Compound 43, 4-Amino-6-(4-bromo-3-fluorophenyl)-3,5-dichloropicolinic acid]	45 to 59%
COC(=O)c1nc(-c2ccc(I)c(F)c2)c(C)c(N)c1Cl [Compound 79, Methyl 4-amino-3-chloro-6-(3-fluoro-4-iodophenyl)-5-methylpicolinate]	0 to 29%
Nc1cc(-c2ccc(I)cc2F)nc(C(=O)O)c1Cl [Compound 124]	60 to 74%

Same assay, conditions: Viola tricolor, post-emergence, 504 h; Table 8; 70 g ai/ha; post-emergent; 21 d; read-out: Visual Growth Reduction (%) 21 Days After Application VIOSS

Compound	pest or weed control at 70 g/ha
Nc1c(Cl)c(C(=O)O)nc(-c2ccc(Br)c(F)c2)c1Cl [Compound 43, 4-Amino-6-(4-bromo-3-fluorophenyl)-3,5-dichloropicolinic acid]	60 to 74%
COC(=O)c1nc(-c2ccc(I)c(F)c2)c(C)c(N)c1Cl [Compound 79, Methyl 4-amino-3-chloro-6-(3-fluoro-4-iodophenyl)-5-methylpicolinate]	0 to 29%
Nc1cc(-c2ccc(I)cc2F)nc(C(=O)O)c1Cl [Compound 124]	95 to 100%

From patent US9113629B2, “4-amino-6-(4-substituted-phenyl)-picolinates and 6-amino-2-(4-substituted-phenyl)-pyrimidine-4-carboxylates and their use as herbicides” (DOW AGROSCIENCES LLC, priority 2013, dated 2015)
